The record followed here is patent US4483989A, “Synthesis of pyrido[4,3-b]carbazole derivatives” (priority 1973, dated 1984).

A short description of data set [1]: Solubility. The data set is classed as physicochemical.
Data set [2] deals with mouse L 1210 leukemia. As to the kind of experiment: L1210 leukemia in mice: inoculum of 10^5 cells, single dose of compound 24 hours later. The data set is classed as in vivo. The conditions noted are these: for ILS (increased life span) % / % of killed cells / Mean survival in days for treated mice: inoculum 10^5 L1210 cells; for Cured animals: cured/total; for Criterion (i): ILS higher than 100%: intraperitoneal injection of 10^5 cells. The source says:
The experimental tumor mouse L 1210 leukemia is commonly used to evaluate the effects of all the antitumor compounds now used in human therapeutics,as was described, for example, by C. C. ZUBROD in Proc. Nat. Acad. Sci. USA 69, 1972, pp. 1042-1047. This experimentally formed tumoral system permits very accurate quantitative evaluation of the activity of the compound tested and also, consequently, an objective comparison of the respective activities of various compounds, for example, according to the methods described by H. E. SKIPPER, F. M. SCHABEL Jr. and W. S. WILCOX in Cancer Chemiother. Rep. 1964, pp. 1-111 and 45, 1965, pp. 5-28.
(§1) The mice were randomized in each experimental series. A first routine experiment enable the death rate by toxicity to be determined and thus established the sublethal doses.
According to the convention in force in this field, the animals which survived longer than 45 days after inoculation of tumoral cells were considered to be cured.
(§2) To evaluate the therapeutic activity of the compounds of the invention, doses of said compound were expressed basing them on the 30 days sublethal dose which was fixed at 1.
A--A tumoral inoculum of 10^5 L1210 leukemia cells was administered by the intraperitoneal way to twenty 2 to 3 months old DBA/2 strain female mice. 24 hours later, half of said mice received a single intraperitoneal injection of a variable dose of the compound to be tested and the same volume of solvent was administered to the other half of the mice by the same way; this latter half of the group of mice was therefore used as the control series. The mice were randomized in each experimental series.
Animals surviving for longer than 45 days were considered to be cured.

Data set [3] relates to mouse L 1210 leukemia. The description is as above. The class given is in vivo. The following applies: for ILS (increased life span) %: I.V., dose 1 (the sublethal dose), inoculum 10^5 L1210 cells; for Criterion (iv): persistence of the antileukemic action after an intravenous injection: L1210 in vivo.
For data set [4] the following is noted: for DLo (I.P.): single i.p. injection; for LDo (highest non lethal dose / sublethal dose) for mice: route not given.
Source text: as §1, §2

The nature of data set [5]: Metabolic studies in mice.
[6] abbreviates: I.P., dose 0.002 of the sublethal dose.
The mark [7] stands for this setting: I.P., dose 0.01 of the sublethal dose.
Setting [8] is: I.P., dose 0.02 of the sublethal dose.
[9] abbreviates: I.P., dose 0.05 of the sublethal dose.
Setting [10] is: I.P., dose 0.1 of the sublethal dose.
Where [11] appears, read: I.P., dose 0.2 of the sublethal dose.
The mark [12] stands for this setting: I.P., dose 0.6 of the sublethal dose.
[13] abbreviates: I.P., dose 1 (the sublethal dose).
The mark [14] stands for this setting: I.P., dose 0.5 of the sublethal dose.
Setting [15] is: I.P., dose 0.005 of the sublethal dose.
[16] abbreviates: I.P., dose 0.3 of the sublethal dose.

“And” between values parts separate entries of the source, which are not always exact repeats. Identical values can stand only once. Like-named read-outs stand apart in the source and are kept apart here. Some results are limits rather than exact numbers.

Take `CCn1c2ccc(O)cc2c2c(C)c3c[n+](CC)ccc3c(C)c21` [9-hydroxy-2,6-diethyl-ellipticinium acetate]: the “Solubility” value in data set [1] is “well water soluble”; in data set [1] (water, read-out: Concentration of easily prepared aqueous solution), 4000 µg/mL.
Take `CC[n+]1ccc2c(C)c3[nH]c4ccc(O)cc4c3c(C)c2c1` [9-hydroxy-2-ethyl ellipticinium acetate, 9-hydroxy-2-ethyl-ellipticinium acetate]: the “ILS (increased life span) %” value in data set [2] (setting [6]) was 114%; in data set [2] (setting [7]) it was 122%; in data set [2] (setting [8]) it was 132%; in data set [2] (setting [9]), 132%; in data set [2] (setting [10]) it was 175%; in data set [2] (setting [11]), 219%. The “ILS (increased life span) %” value in data set [2] (I.P., dose 0.4 of the sublethal dose) stood at 165%; in data set [2] (setting [12]), 188%; in data set [2] (setting [13]) it was 157%; in data set [2] (I.V., dose 0.33 of the sublethal dose) it was 118%; in data set [3], 124%. In data set [2] (L1210 in vivo), this compound gave a Chemotherapeutic index of 75. In addition, the “Criterion (ii): occurrence of cured animals” value (“Criterion (ii): occurrence” below) in data set [2] (L1210 in vivo) is given as “+”. Also, the “Increased life span (ILS)” value in data set [2] (L1210 in vivo, dose LDo /5) stood at 119%. Besides, the Cured animals in data set [2] (L1210 in vivo, dose LDo /5) was 3/20. Also, in data set [2] (L1210 in vivo), the “Criterion (i): ILS higher than 100%” value was “+ (increased life span (ILS) higher than 100% after intraperitoneal injection of 10^5 cells)”. Besides, the “Criterion (iv): persistence of the antileukemic action after an intravenous injection” value (“Criterion (iv): persistence” below) in data set [3] is “+”. Moreover, the “DL100 (I.P.)” value in data set [4] (mice, I.P.) amounted to 100 mg/kg. In addition, the “DL 100 (I.V.)” value in data set [4] (mice, I.V.) is 20 mg/kg. For the same compound, the “DLo (I.V.)” value in data set [4] (mice, I.V.) came to 15 mg/kg. Besides, the “DLo (I.P.)” value in data set [4] (mice) is given as 50 mg/kg.
For the compound `Cc1c2cc[n+](CCO)cc2c(C)c2c1[nH]c1ccc(O)cc12` [9-hydroxy-2-hydroxyethyl-ellipticinium acetate], the “ILS (increased life span) %” value was 115% in data set [2] (setting [7]); 133% in data set [2] (setting [9]); 159% and 151% in data set [2] (setting [10]); 217% in data set [2] (setting [14]); 197% in data set [2] (setting [13]); 282% in data set [2] (I.P., dose 1.5 of the sublethal dose). The “ILS (increased life span) %” value is 121% in data set [2] (I.V., dose 0.25 of the sublethal dose); 140% in data set [2] (I.V., dose 0.5 of the sublethal dose); 142% in data set [2] (I.V., dose 2 × 0.5 of the sublethal dose); 125% in data set [2] (I.V., dose 3 × 0.25 of the sublethal dose); 146% in data set [3]. The “Criterion (ii): occurrence” value in data set [2] (L1210 in vivo) is listed as “+”. Further, in data set [2] (L1210 in vivo, dose LDo /2), the “Increased life span (ILS)” value amounted to 117%. Also, in data set [2] (L1210 in vivo, dose LDo /2), the Cured animals is 2/15. Further, in data set [2] (L1210 in vivo), the “Criterion (i): ILS higher than 100%” value is reported as “+ (increased life span (ILS) higher than 100% after intraperitoneal injection of 10^5 cells)”. In addition, in data set [3], the “Criterion (iv): persistence” value is given as “+”. Further, in data set [4] (mice, I.V.), the “DLo (I.V.)” value came to 20 mg/kg. Besides, in data set [4] (mice), the “DLo (I.P.)” value came out at 10 mg/kg.
As to `CC[n+]1ccc2c(C)c3[nH]c4ccc(OC(C)=O)cc4c3c(C)c2c1` [9-acetoxy-2-ethyl-ellipticinium acetate], the “ILS (increased life span) %” value in data set [2] (setting [15]) worked out at 114%; in data set [2] (setting [7]), 134%; in data set [2] (setting [8]), 137%; in data set [2] (setting [10]), 157%; in data set [2] (setting [16]) it was 180%; in data set [2] (setting [12]), 191%. In data set [2] (L1210 in vivo), this compound gave a Chemotherapeutic index of 100. Also, the “Criterion (ii): occurrence” value in data set [2] (L1210 in vivo) is on record as “+”. Further, the Cured animals in data set [2] (L1210 in vivo, dose LDo /3) is 3/20. The “DLo (I.P.)” value in data set [4] (mice) came out at 50 mg/kg.
As to `Cc1c2ccncc2c(C)c2c1[nH]c1ccccc12` [ellipticine], the Metabolism result in data set [5] was “hydroxylated in the 9-position and then glucuroconjugated”.
In the case of `Cc1c2c[n+](C)ccc2c(C)c2c1c1cc(O)ccc1n2C` [9-hydroxy-2,6-dimethyl-ellipticinium acetate], in data set [2] (L1210), the Therapeutic index result is given as “extremely high”. Also, the “LDo (highest non lethal dose / sublethal dose) for mice” value in data set [4] was determined as 50 mg/kg.
In the case of “9-hydroxy-2(β-diisopropylamino-ethyl)-ellipticiniu acetate”, in data set [2] (setting [10]), the “% of killed cells” value is on record as under 90%, the “ILS (increased life span) %” value is 110% and the “Mean survival in days for treated mice” value is reported as 10.7 days. In data set [2] (setting [13]), the “% of killed cells” value was under 90%, the “ILS (increased life span) %” value was 110% and the “Mean survival in days for treated mice” value is listed as 10.9 days. Also, the “Criterion (iv): persistence” value in data set [3] was “+”.
For `CCN(CC)CC[n+]1ccc2c(C)c3[nH]c4ccc(O)cc4c3c(C)c2c1` [9-hydroxy-2(β-diethylamino-ethyl)-ellipticinium acetate], the “ILS (increased life span) %” value came to 119% in data set [2] (setting [6]); 137% in data set [2] (setting [7]); 139% in data set [2] (setting [8]); 173% in data set [2] (setting [10]); 151% in data set [2] (setting [11]); 243% in data set [2] (setting [16]). The “ILS (increased life span) %” value in data set [2] (setting [14]) is 196%; in data set [3], 112%. This compound also came in with a Chemotherapeutic index in data set [2] (L1210 in vivo) of 100. Besides, in data set [2] (L1210 in vivo), the “Criterion (ii): occurrence” value is given as “+”. Moreover, in data set [2] (L1210 in vivo, dose LDo /2), the Cured animals is recorded as 6/20. The “DLo (I.V.)” value in data set [4] (mice, I.V.) is on record as 5 mg/kg. Also, in data set [4] (mice), the “DLo (I.P.)” value was 50 mg/kg.
`Cc1c2cc[n+](CCN3CCCCC3)cc2c(C)c2c1[nH]c1ccc(O)cc12` [9-hydroxy-2(β-piperidino-ethyl)-ellipticinium acetate]: the “ILS (increased life span) %” value in data set [2] (setting [6]) was found to be 113%; in data set [2] (setting [15]), 119%; in data set [2] (setting [7]), 124%; in data set [2] (setting [8]), 131%; in data set [2] (setting [10]), 181%; in data set [2] (setting [11]), 202%. In addition, the “ILS (increased life span) %” value was 171% in data set [2] (setting [13]) and 131% in data set [2] (I.V., dose 1 (the sublethal dose)). The compound also came in with a Chemotherapeutic index in data set [2] (L1210 in vivo) of 100. Moreover, the “Criterion (ii): occurrence” value in data set [2] (L1210 in vivo) was “+”. Moreover, in data set [2] (L1210 in vivo, dose LDo /5), the “Increased life span (ILS)” value was 102%. Besides, the Cured animals in data set [2] (L1210 in vivo, dose LDo) is 5/15. In addition, in data set [2] (L1210 in vivo), the “Criterion (i): ILS higher than 100%” value was “+ (increased life span (ILS) higher than 100% after intraperitoneal injection of 10^5 cells)”. Also, the “Criterion (iv): persistence” value in data set [2] (L1210 in vivo, intravenous injection) is “+”. Further, the “DLo (I.V.)” value in data set [4] (mice, I.V.) was determined as 10 mg/kg. Besides, in data set [4] (mice), the “DLo (I.P.)” value was found to be 50 mg/kg.
Consider `CC[n+]1ccc2c(C)c3c(c(C)c2c1)c1cc(O)ccc1n3C` [9-hydroxy-6-methyl-2-ethyl-ellipticinium acetate], for which the “ILS (increased life span) %” value amounted to 127% in data set [2] (setting [10]), 178% in data set [2] (setting [11]), 202% in data set [2] (setting [12]) and 115% in data set [3]. Also, in data set [2] (L1210 in vivo, dose ≈ LDo /2), the “Increased life span (ILS)” value was determined as 102%. The “Criterion (i): ILS higher than 100%” value in data set [2] (L1210 in vivo) is on record as “+ (increased life span (ILS) higher than 100% after intraperitoneal injection of 10^5 cells)”. The “DLo (I.V.)” value in data set [4] (mice, I.V.) is 5 mg/kg. Moreover, the “DLo (I.P.)” value in data set [4] (mice) is listed as 50 mg/kg.
As to `Cc1c2c[n+](C)ccc2c(C)c2c1c1cc(O)ccc1n2C` [9-hydroxy-6-methyl-ellipticinium iodomethylate], the “Solubility” value in data set [1] is on record as “much more soluble than the 9-hydroxy-ellipticinium iodomethylate”.
As for `CC(=O)Oc1ccc2c(c1)c1c(C)c3c[n+](C)ccc3c(C)c1n2C` [9-acetoxy-2,6-dimethyl-ellipticinium acetate], the “Antitumoral activity on L1210 leukemia (comparison in words)” value in data set [2] (mouse, in vivo) is “comparable with that of the 9-hydroxy-2,6-dimethyl-ellipticinium acetate”. Further, in data set [4], the “LDo (highest non lethal dose / sublethal dose) for mice” value is reported as 50 mg/kg.
